Laboratory results: patent publication US11555041B2, “Bridged bicyclic inhibitors of menin-MLL and methods of use” (Kura Oncology, Inc., priority 2016, dated 2023)

Target: T1, menin-MLL interaction (Menin MLL 4-43) (Homo sapiens, UniProt O00255)
T1 sequence (O00255 1-610): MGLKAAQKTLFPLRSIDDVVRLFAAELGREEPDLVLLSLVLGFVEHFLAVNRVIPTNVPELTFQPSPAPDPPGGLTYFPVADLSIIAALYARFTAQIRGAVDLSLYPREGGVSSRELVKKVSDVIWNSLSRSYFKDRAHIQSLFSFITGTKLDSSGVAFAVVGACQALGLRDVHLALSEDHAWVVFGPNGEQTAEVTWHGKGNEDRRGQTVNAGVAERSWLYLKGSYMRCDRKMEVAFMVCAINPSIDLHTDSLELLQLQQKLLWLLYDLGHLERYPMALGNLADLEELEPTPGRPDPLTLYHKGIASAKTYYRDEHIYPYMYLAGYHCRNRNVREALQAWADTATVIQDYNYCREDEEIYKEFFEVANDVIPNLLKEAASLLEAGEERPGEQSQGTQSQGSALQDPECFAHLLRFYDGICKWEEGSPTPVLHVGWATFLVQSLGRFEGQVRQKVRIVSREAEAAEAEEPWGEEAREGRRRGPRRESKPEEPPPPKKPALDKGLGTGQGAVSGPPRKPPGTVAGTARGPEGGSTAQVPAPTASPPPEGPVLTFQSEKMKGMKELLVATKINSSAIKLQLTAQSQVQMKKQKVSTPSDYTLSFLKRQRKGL
Test: Fluorescence polarization (FP) competition assay
Type: binding
Details: fluorescence polarization assay; read-out: Menin MLL 4-43 IC50

Row | IC50 | Compound
1 | 250 to 1000 nM | Cc1c(CN2CCC(Nc3ncnc4sc(CC(F)(F)F)cc34)CC2)ccc2c1cc(C#N)n2CC12CC(NC(=O)CN)(C1)C2 (single isomer, unassigned) [Compound 61]
2 | 50 to 250 nM | C=CC(=O)NC12CC(Cn3c(C#N)cc4c(C)c(CN5CCC(Nc6ncnc7sc(CC(F)(F)F)cc67)CC5)ccc43)(C1)C2 [Compound 1]
3 | 50 to 250 nM | CC(=O)NC12CC(Cn3c(C#N)cc4c(C)c(CN5CCC(Nc6ncnc7sc(CC(F)(F)F)cc67)CC5)ccc43)(C1)C2 [Compound 2]
4 | 250 to 1000 nM | Cc1c(CN2CCC(Nc3ncnc4sc(CC(F)(F)F)cc34)CC2)ccc2c1cc(C#N)n2CC12CC(NC(=O)C(F)(F)F)(C1)C2 [Compound 6]
5 | < 50 nM | CNC(=O)NC12CC(Cn3c(C#N)cc4c(C)c(CN5CCC(Nc6ncnc7sc(CC(F)(F)F)cc67)CC5)ccc43)(C1)C2 [Compound 7]
6 | 50 to 250 nM | Cc1c(CN2CCC(Nc3ncnc4sc(CC(F)(F)F)cc34)CC2)ccc2c1cc(C#N)n2CC12CC(NC(=O)C(C)C)(C1)C2 [Compound 8]
7 | 50 to 250 nM | Cc1c(CN2CCC(Nc3ncnc4sc(CC(F)(F)F)cc34)CC2)ccc2c1cc(C#N)n2CC12CC(NC(=O)C3CC3)(C1)C2 [Compound 9]
8 | 50 to 250 nM | CNC12CC(Cn3c(C#N)cc4c(C)c(CN5CCC(Nc6ncnc7sc(CC(F)(F)F)cc67)CC5)ccc43)(C1)C2 [Compound 10]
9 | < 50 nM | Cc1c(CN2CCC(Nc3ncnc4sc(CC(F)(F)F)cc34)CC2)ccc2c1cc(C#N)n2CC12CC(NC=O)(C1)C2 [Compound 15]
10 | 50 to 250 nM | Cc1c(CN2CCC(Nc3ncnc4sc(CC(F)(F)F)cc34)CC2)ccc2c1cc(C#N)n2CC12CC(NC(=O)CO)(C1)C2 [Compound 16]
11 | < 50 nM | Cc1c(CN2CCC(Nc3ncnc4sc(CC(F)(F)F)cc34)CC2)ccc2c1cc(C#N)n2CC12CC(NC(=O)CN)(C1)C2 [Compound 17]
12 | 50 to 250 nM | CNC(=O)C12CC(Cn3c(C#N)cc4c(C)c(CN5CCC(Nc6ncnc7sc(CC(F)(F)F)cc67)CC5)ccc43)(C1)C2 [Compound 18]
13 | > 1000 nM | Cc1c(CN2CCC(Nc3ncnc4sc(CC(F)(F)F)cc34)CC2)ccc2c1cc(C#N)n2CC12CC(C(=O)O)(C1)C2 [Compound 20]
14 | 250 to 1000 nM | Cc1c(CN2CCC(Nc3ncnc4sc(CC(F)(F)F)cc34)CC2)ccc2c1cc(C#N)n2CC12CC(NC(=O)CNC=O)(C1)C2 [Compound 33]
15 | < 50 nM | Cc1c(CN2CCC(Nc3ncnc4sc(CC(F)(F)F)cc34)CC2)ccc2c1cc(C#N)n2CC12CC(NC(=O)CCN)(C1)C2 [Compound 39]
16 | < 50 nM | Cc1c(CN2CCC(Nc3ncnc4sc(CC(F)(F)F)cc34)CC2)ccc2c1cc(C#N)n2CC12CC(NC(=O)CN(C)C)(C1)C2 [Compound 40]
17 | 50 to 250 nM | COCC(=O)NC12CC(Cn3c(C#N)cc4c(C)c(CN5CCC(Nc6ncnc7sc(CC(F)(F)F)cc67)CC5)ccc43)(C1)C2 [Compound 43]
18 | < 50 nM | CNCC(=O)NC12CC(Cn3c(C#N)cc4c(C)c(CN5CCC(Nc6ncnc7sc(CC(F)(F)F)cc67)CC5)ccc43)(C1)C2 [Compound 48]
19 | < 50 nM | Cc1c(CN2CCC(Nc3ncnc4sc(CC(F)(F)F)cc34)CC2)ccc2c1cc(C#N)n2CC12CC(NC(=O)C(C)(C)N)(C1)C2 [Compound 59]
20 | 50 to 250 nM | Cc1c(CN2CCC(Nc3ncnc4sc(CC(F)(F)F)cc34)CC2)ccc2c1cc(C#N)n2CC12CC(NC(=O)C3(N)CC3)(C1)C2 [Compound 60]
21 | < 50 nM | Cc1c(CN2CCC(Nc3ncnc4sc(CC(F)(F)F)cc34)CC2)ccc2c1cc(C#N)n2CC12CC(NC(=O)C(N)C(C)C)(C1)C2 (stereo not shown) [Compound 62]

The next lines start with the compound.

Row | Compound | IC50
22 | Cc1c(CN2CCC(Nc3ncnc4sc(CC(F)(F)F)cc34)CC2)ccc2c1cc(C#N)n2CC12CC(N(C)C)(C1)C2 [Compound 5] | 250 to 1000 nM
23 | Cc1c(CN2CCC(Nc3ncnc4sc(CC(F)(F)F)cc34)CC2)ccc2c1cc(C#N)n2CCC12CC(N)(C1)C2 [Compound 11] | 250 to 1000 nM
24 | CCC(=O)NC12CC(CCn3c(C#N)cc4c(C)c(CN5CCC(Nc6ncnc7sc(CC(F)(F)F)cc67)CC5)ccc43)(C1)C2 [Compound 12] | > 1000 nM
25 | Cc1c(CN2CCC(Nc3ncnc4sc(CC(F)(F)F)cc34)CC2)ccc2c1cc(C#N)n2CC12CC(N)(C1)C2 [Compound 13] | 50 to 250 nM
26 | C=CC(=O)NC12CC(CCn3c(C#N)cc4c(C)c(CN5CCC(Nc6ncnc7sc(CC(F)(F)F)cc67)CC5)ccc43)(C1)C2 [Compound 14] | 250 to 1000 nM
27 | C=CC(=O)N[C@H]1C[C@@H](Cn2c(C#N)cc3c(C)c(CN4CCC(Nc5ncnc6sc(CC(F)(F)F)cc56)CC4)ccc32)C1 [Compound 29] | 50 to 250 nM
28 | C=CC(=O)N[C@H]1C[C@H](Cn2c(C#N)cc3c(C)c(CN4CCC(Nc5ncnc6sc(CC(F)(F)F)cc56)CC4)ccc32)C1 [Compound 30] | 50 to 250 nM
29 | CC(=O)N[C@H]1C[C@@H](Cn2c(C#N)cc3c(C)c(CN4CCC(Nc5ncnc6sc(CC(F)(F)F)cc56)CC4)ccc32)C1 [Compound 31] | 250 to 1000 nM
30 | CC(=O)N[C@H]1C[C@H](Cn2c(C#N)cc3c(C)c(CN4CCC(Nc5ncnc6sc(CC(F)(F)F)cc56)CC4)ccc32)C1 [Compound 32] | 50 to 250 nM
31 | Cc1c(CN2CCC(Nc3ncnc4sc(CC(F)(F)F)cc34)CC2)ccc2c1cc(C#N)n2CC12CC(NC(=O)c3ccc[nH]3)(C1)C2 [Compound 34] | 50 to 250 nM
32 | Cc1c(CN2CCC(Nc3ncnc4sc(CC(F)(F)F)cc34)CC2)ccc2c1cc(C#N)n2CC12CC(NC(=O)c3cccc(=O)[nH]3)(C1)C2 [Compound 35] | < 50 nM
33 | Cc1c(CN2CCC(Nc3ncnc4sc(CC(F)(F)F)cc34)CC2)ccc2c1cc(C#N)n2CC12CC(NC(=O)CNS(C)(=O)=O)(C1)C2 [Compound 36] | 50 to 250 nM
34 | Cc1c(CN2CCC(Nc3ncnc4sc(CC(F)(F)F)cc34)CC2)ccc2c1cc(C#N)n2CC12CC(C(=O)NCCN)(C1)C2 [Compound 37] | < 50 nM
35 | Cc1c(CN2CCC(Nc3ncnc4sc(CC(F)(F)F)cc34)CC2)ccc2c1cc(C#N)n2CC12CC(NC(=O)c3cnc[nH]3)(C1)C2 [Compound 38] | 50 to 250 nM
36 | Cc1c(CN2CCC(Nc3ncnc4sc(CC(F)(F)F)cc34)CC2)ccc2c1cc(C#N)n2CC12CC(NC(=O)C3CCCN3)(C1)C2 (stereo not shown) [Compound 41] | < 50 nM
37 | Cc1c(CN2CCC(Nc3ncnc4sc(CC(F)(F)F)cc34)CC2)ccc2c1cc(C#N)n2CC12CC(NC(=O)CNC3CC3)(C1)C2 [Compound 42] | 50 to 250 nM
38 | Cc1c(CN2CCC(Nc3ncnc4sc(CC(F)(F)F)cc34)CC2)ccc2c1cc(C#N)n2CC12CC(N(C3CC3)C3CC3)(C1)C2 [Compound 49] | > 1000 nM
39 | CCC(=O)NC12CC(Cn3c(C#N)cc4c(C)c(CN5CCC(Nc6nc(N)nc7sc(CC(F)(F)F)cc67)CC5)ccc43)(C1)C2 [Compound 54] | < 50 nM
40 | CCC(=O)NC12CC(Cn3c(C#N)cc4c(C)c(CN5CCC(Nc6nc(C)nc7sc(CC(F)(F)F)cc67)CC5)ccc43)(C1)C2 [Compound 55] | 50 to 250 nM
41 | Cc1c(CN2CCC(Nc3ncnc4sc(CC(F)(F)F)cc34)CC2)ccc2c1cc(C#N)n2CC12CC(NC(=O)CN3CCOCC3)(C1)C2 [Compound 56] | < 50 nM
42 | Cc1c(CN2CCC(Nc3ncnc4sc(CC(F)(F)F)cc34)CC2)ccc2c1cc(C#N)n2CC12CC(NC(=O)CN3CCCC3)(C1)C2 [Compound 57] | < 50 nM
43 | Cc1c(CN2CCC(Nc3ncnc4sc(CC(F)(F)F)cc34)CC2)ccc2c1cc(C#N)n2CC12CC(NC(=O)C3CCCN3C)(C1)C2 (stereo not shown) [Compound 58] | < 50 nM
